Six compounds from paper PMC7238120, “Strong and Selective Inhibitory Effects of the Biflavonoid Selamariscina A against CYP2C8 and CYP2C9 Enzyme Activities in Human Liver Microsomes” (Pharmaceutics, 2020) can be followed below.

In data set [1] the target is CYP3A (Homo sapiens, UniProt P08684). Description: Inhibition of CYP3A-catalyzed midazolam 1'-hydroxylation in pooled human liver microsomes. It is filed as in vitro ADME. Here is the method: (§1) The inhibitory potential of the five biflavonoids on the metabolism of nine P450 probe substrates was evaluated using previously developed methods with minor modifications. Biflavonoids were dissolved in methanol. The final concentration of methanol in the incubation mixture was 1.0% (v/v). We used these P450 probe substrates: phenacetin for CYP1A2, coumarin for CYP2A6, bupropion for CYP2B6, amodiaquine for CYP2C8, diclofenac for CYP2C9, omeprazole for CYP2C19, dextromethorphan for CYP2D6, chlorzoxazone for CYP2E1 and midazolam for CYP3A (Table 1). […] The reaction was stopped by adding 50 μL of ice-cold acetonitrile containing 7 nM trimipramine (internal standard, IS). After centrifugation at 18,000 g (5 min, 4 °C), aliquots of supernatants were analyzed by LC-MS/MS (Shimadzu LCMS 8060 system, Shimadzu, Kyoto, Japan). All microsomal incubations were conducted in triplicate. We used HLMs to determine the mechanisms and constants (Ki values) for […] A inhibition of CYP1A2, CYP2B6, CYP2C8, CYP2C9 and CYP3A. […] The substrates were used at concentrations approximately near to their respective Km values. […] The other conditions were the same as in the cytochrome P450 inhibition study. […] Phenomenex, Torrance, CA, USA) and analyzed using a Shimadzu LCMS 8060 triple-quadrupole mass spectrometer coupled with a Nexera X2 ultra high-performance liquid chromatography system (Shimadzu, Kyoto, Japan) equipped with an electrospray ionization interface. The mobile phase consisted of 0.1% formic acid in water (A) and 0.1% formic acid in acetonitrile (B). […] The flow rate was 0.2 mL/min. Electrospray ionization was performed in positive-ion mode at 4000 V or in negative-ion mode at -3500 V. […] Quantitation was conducted in selected reaction monitoring (SRM) modes with the precursor-to-product ion transition for each metabolite (Table 1 and Table 2). We analyzed the data with Shimadzu LabSolution LC-MS software. The IC50 values were calculated by WinNonlin software (Pharsight, Mountain View, CA, USA). The type of inhibition and the apparent kinetic parameters for inhibitory activity (Ki) were determined by following several criteria: visual inspection of Dixon plots, Lineweaver-Burk double reciprocal plots, and secondary plots of Lineweaver-Burk plots versus biflavonoid concentrations, the size of the sum of squares of the residuals, Akaike Information Criteria values, the S.E. and 95% confidence interval of the parameter estimates from the nonlinear regression analysis using the WinNonlin software. The models tested included competitive, competitive partial, noncompetitive, noncompetitive partial, uncompetitive, uncompetitive partial, and mixed-type inhibition.
Chain of CYP3A (P08684 2-503): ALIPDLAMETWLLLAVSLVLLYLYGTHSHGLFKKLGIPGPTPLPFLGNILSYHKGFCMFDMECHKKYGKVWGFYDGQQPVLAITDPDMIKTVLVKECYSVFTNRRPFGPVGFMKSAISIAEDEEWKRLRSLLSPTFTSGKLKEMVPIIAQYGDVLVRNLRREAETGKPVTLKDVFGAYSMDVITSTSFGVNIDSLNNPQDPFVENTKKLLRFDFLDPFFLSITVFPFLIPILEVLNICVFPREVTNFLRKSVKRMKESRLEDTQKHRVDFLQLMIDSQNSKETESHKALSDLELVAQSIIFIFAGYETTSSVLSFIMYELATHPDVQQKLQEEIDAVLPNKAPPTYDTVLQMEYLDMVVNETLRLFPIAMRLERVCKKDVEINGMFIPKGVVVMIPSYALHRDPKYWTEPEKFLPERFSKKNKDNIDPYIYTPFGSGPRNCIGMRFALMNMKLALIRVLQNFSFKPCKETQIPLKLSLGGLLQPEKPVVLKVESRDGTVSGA

In data set [2] the target is CYP2C9 (Homo sapiens, UniProt P11712). Description: Inhibition of CYP2C9-catalyzed diclofenac 4-hydroxylation in pooled human liver microsomes. In kind it is in vitro ADME. More on the design: incubation mixtures containing pooled human liver microsomes (HLMs, XTreme 200, XenoTech); tissue XenoTech XTreme 200; host or cells: pooled human liver microsomes. Here is the method: as §1
Chain of CYP2C9 (P11712 whole entry): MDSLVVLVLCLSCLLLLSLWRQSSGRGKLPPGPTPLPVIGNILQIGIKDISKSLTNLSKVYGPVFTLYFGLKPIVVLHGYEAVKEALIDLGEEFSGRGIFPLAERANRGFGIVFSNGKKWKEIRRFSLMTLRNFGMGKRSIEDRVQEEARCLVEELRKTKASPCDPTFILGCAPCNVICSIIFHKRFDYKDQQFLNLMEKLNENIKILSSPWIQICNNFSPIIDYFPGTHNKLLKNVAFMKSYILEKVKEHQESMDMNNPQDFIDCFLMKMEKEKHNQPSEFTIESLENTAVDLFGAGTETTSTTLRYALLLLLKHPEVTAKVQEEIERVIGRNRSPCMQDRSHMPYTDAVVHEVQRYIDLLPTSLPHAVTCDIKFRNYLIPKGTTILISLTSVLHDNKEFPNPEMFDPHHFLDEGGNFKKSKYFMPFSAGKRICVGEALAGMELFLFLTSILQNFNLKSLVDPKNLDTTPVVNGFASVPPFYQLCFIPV

The mark [3] stands for this setting: human, pooled human liver microsomes, probe midazolam (5 µM), substrate midazolam 5 µM, pooled HLMs, read-out: IC50, P450 3A.
[4] abbreviates: substrate diclofenac 10 µM, pooled HLMs, read-out: IC50, P450 2C9.

Like-named read-outs stand apart in the source and are kept apart here.

With `O=c1cc(-c2ccc(O)c(-c3c(O)cc(O)c4c(=O)cc(-c5ccc(O)cc5)oc34)c2)oc2cc(O)cc(O)c12` [amentoflavone], half-maximal inhibition in data set [1] (human, microsomes) (IC50 at 10 min) required 1300 nM. The IC50 in data set [2] was determined as 150 nM.
As to `O=c1cc(-c2ccc(O)cc2)oc2c(-c3c(O)cc(O)c4c(=O)cc(-c5ccc(O)cc5)oc34)c(O)cc(O)c12` [cupressuflavone], the IC50 at 10 min in data set [1] (setting [3]) was 1500 nM. Besides, the IC50 in data set [2] (setting [4]) turned out to be 210 nM.
For `CC(C)(O)c1ccccc1CC[C@@H](SCC1(CC(=O)O)CC1)c1cccc(/C=C/c2ccc3ccc(Cl)cc3n2)c1` [montelukast, reference compound], the IC50 at 10 min in data set [1] (human, microsomes) was greater than 50000 nM. The inhibition at 10 min, 5 µM in data set [2] (human, pooled human liver microsomes, probe diclofenac, inhibitor 5 μM, pooled HLMs) was 31%. Moreover, the IC50 in data set [2] (setting [4]) worked out at 9730 nM.
For `O=c1cc(-c2ccc(O)c(-c3c(O)cc4oc(-c5ccc(O)cc5)cc(=O)c4c3O)c2)oc2cc(O)cc(O)c12` [robustaflavone], the 50% inhibitory concentration (IC50) at 10 min in data set [1] (setting [3]) turned out to be 1200 nM. Further, the half-maximal inhibitory concentration (IC50) in data set [2] (setting [4]) turned out to be 150 nM.
For `O=C1CC(c2cc(-c3c(O)ccc4c(=O)cc(-c5ccc(O)cc5)oc34)c(O)cc2O)Oc2cc(O)cc(O)c21` (stereo not drawn) [selamariscina A], in data set [1] (HLMs), the “Mode of Inhibition, CYP3A midazolam” value was “Noncompetitive”. In addition, in data set [1] (setting [3]), the IC50 at 10 min came to 2700 nM. The affinity in data set [1] (human, pooled human liver microsomes, probe midazolam (0.5, 2, 5 μM), HLMs, average ± standard error, triplicate), expressed as Ki at 10 min, was 4.5 ± 0.5 µM. Moreover, in data set [2] (HLMs), the “Mode of Inhibition, CYP2C9 diclofenac” value is listed as “Competitive”. In addition, in data set [2] (HLMs, average ± standard error, triplicate), the inhibition constant Ki was determined as 32 ± 7 nM. Moreover, the inhibition at 10 min, 0.5 µM in data set [2] (human, pooled human liver microsomes, probe diclofenac, inhibitor 0.5 μM, pooled HLMs) stood at 88.6%. Also, the IC50 in data set [2] (setting [4]) came to 47 nM.
On to `O=c1cc(-c2ccc(O)c(-c3c(-c4ccc(O)cc4)oc4cc(O)cc(O)c4c3=O)c2)oc2cc(O)cc(O)c12` [taiwaniaflavone], for which the IC50 at 10 min in data set [1] (setting [3]) stood at 1200 nM. Besides, the IC50 in data set [2] (setting [4]) turned out to be 200 nM.
